Experimental data reported in ChEMBL document CHEMBL1201862, “PubChem BioAssay data set” (2004).
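Five compound concentrations were applied to cells in 96-well plates for 48 hours; endpoints were derived by simple linear interpolation of the resulting dose-response curve. GI50 is the concentration that inhibits growth by half.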 Active and inactive are the calls of the source. No stated cut-off is given here; in the data, active = GI50 up to about 1.1 µM and inactive = higher.

What was measured:
Assay in all cases: DTP human tumour cell line panel, 48 h
SK-OV-3 = system: SK-OV-3
SN12C = system: SN12C
SNB-75 = system: SNB-75
NCI-H226 = system: NCI-H226
UACC-257 = system: UACC-257
XF498 = system: XF498
ACHN = system: ACHN
SK-MEL-28 = system: SK-MEL-28
CCRF-CEM = system: CCRF-CEM
RXF 393 = system: RXF 393
KM-20L2 = system: KM-20L2
TK-10 = system: TK-10
SF-295 = system: SF-295
OVCAR-3 = system: OVCAR-3
Malme-3M = system: Malme-3M
MDA-MB-231 = system: MDA-MB-231
MCF7 = system: MCF7
Hs-578T = system: Hs-578T
NCI-H522 = system: NCI-H522
HOP-92 = system: HOP-92

Cc1cccc2c1Sc1ccccc1C2NC(=O)CN(C)C (stereo not drawn)
GI50 (SK-OV-3): > 100 µM (inactive) | GI50 (SN12C): 81.5 µM (inactive) | GI50 (SNB-75): 16 µM (inactive) | GI50 (NCI-H226): > 100 µM (inactive) | GI50 (UACC-257): 52.6 µM (inactive) | GI50 (XF498): > 100 µM (inactive) | GI50 (ACHN): 43.4 µM (inactive) | GI50 (SK-MEL-28): 52.4 µM (inactive) | GI50 (CCRF-CEM): > 100 µM (inactive) | GI50 (RXF 393): 53.6 µM (inactive) | GI50 (KM-20L2): 18.7 µM (inactive) | GI50 (TK-10): > 100 µM (inactive)

Nc1nc(=S)[nH]c2nc3c(c(-c4ccccc4)c12)CCCC3
GI50 (SK-OV-3): > 100 µM (inactive) | GI50 (SN12C): 67.8 µM (inactive) | GI50 (SF-295): > 100 µM (inactive) | GI50 (OVCAR-3): > 100 µM (inactive) | GI50 (Malme-3M): > 100 µM (inactive) | GI50 (MDA-MB-231): > 100 µM (inactive) | GI50 (MCF7): > 100 µM (inactive) | GI50 (Hs-578T): 51.9 µM (inactive) | GI50 (SNB-75): 34.8 µM (inactive) | GI50 (UACC-257): > 10 µM (inactive) | GI50 (ACHN): > 100 µM (inactive) | GI50 (CCRF-CEM): > 10 µM (inactive) | GI50 (TK-10): > 100 µM (inactive)

O=Cc1c(Br)[nH]c2ccccc12
GI50 (SK-OV-3): 94.4 µM (inactive) | GI50 (SN12C): > 100 µM (inactive) | GI50 (SF-295): 75.2 µM (inactive) | GI50 (OVCAR-3): > 100 µM (inactive) | GI50 (Malme-3M): > 100 µM (inactive) | GI50 (MCF7): 47 µM (inactive) | GI50 (NCI-H522): 61.2 µM (inactive) | GI50 (SNB-75): 28.8 µM (inactive) | GI50 (NCI-H226): > 58.3 µM (inactive) | GI50 (UACC-257): 26.9 µM (inactive) | GI50 (XF498): > 100 µM (inactive) | GI50 (SK-MEL-28): > 100 µM (inactive) | GI50 (CCRF-CEM): 96.6 µM (inactive) | GI50 (RXF 393): > 100 µM (inactive) | GI50 (KM-20L2): > 100 µM (inactive) | GI50 (HOP-92): 29.6 µM (inactive)

COc1ccc(NC2=NCCO2)c2ccccc12
GI50 (SK-OV-3): > 10 µM (inactive) | GI50 (SN12C): > 10 µM (inactive) | GI50 (SF-295): > 10 µM (inactive) | GI50 (OVCAR-3): > 10 µM (inactive) | GI50 (Malme-3M): > 10 µM (inactive) | GI50 (MDA-MB-231): > 10 µM (inactive) | GI50 (MCF7): > 10 µM (inactive) | GI50 (Hs-578T): > 10 µM (inactive) | GI50 (NCI-H522): > 10 µM (inactive) | GI50 (SNB-75): > 10 µM (inactive) | GI50 (NCI-H226): 3.03 µM (inactive) | GI50 (ACHN): > 10 µM (inactive) | GI50 (SK-MEL-28): > 10 µM (inactive) | GI50 (CCRF-CEM): > 10 µM (inactive) | GI50 (RXF 393): > 10 µM (inactive) | GI50 (TK-10): > 10 µM (inactive)

O=C(NCCCNC(=O)c1ccc2cc(O)c(O)cc2c1)c1ccc2cc(O)c(O)cc2c1
GI50 (Malme-3M): 28.6 µM (inactive) | GI50 (MCF7): 30.9 µM (inactive) | GI50 (NCI-H522): 29.6 µM (inactive) | GI50 (SNB-75): 22.8 µM (inactive) | GI50 (NCI-H226): 18.4 µM (inactive) | GI50 (UACC-257): 36.4 µM (inactive) | GI50 (ACHN): 23.9 µM (inactive) | GI50 (SK-MEL-28): 40.4 µM (inactive) | GI50 (CCRF-CEM): 27.1 µM (inactive) | GI50 (RXF 393): 24.7 µM (inactive) | GI50 (TK-10): 37.9 µM (inactive) | GI50 (HOP-92): 14.2 µM (inactive)

O=c1c2cc(I)ccc2nc(-c2cccs2)n1Nc1ccccc1
GI50 (SK-OV-3): 13.9 µM (inactive) | GI50 (SN12C): 46.8 µM (inactive) | GI50 (SF-295): 0.383 µM (active) | GI50 (OVCAR-3): 1.16 µM (inactive) | GI50 (NCI-H522): 0.849 µM (active) | GI50 (NCI-H226): 14.1 µM (inactive) | GI50 (ACHN): 0.675 µM (active) | GI50 (SK-MEL-28): 17.9 µM (inactive) | GI50 (RXF 393): 39.3 µM (inactive)
